# Experimental data taken from patent publication US5707817A, “Carbohydrate-based vaccine and diagnostic reagent for trichinosis” (Colorado State University Research Foundation, priority 1995, dated 1998).
# Where two headings read alike, the source gives them in different places.
# Key:
# [1] = test system: binding of Tsp 130 antibody to T. spiralis TSL-1 antigens and E11.5 lysate
# [2] = test system: Tsp 130 binding to the crude T. spiralis muscle stage larval lysate E11.5; assay: Competitive inhibition assay: disaccharide inhibition of Tsp 130 binding to crude muscle stage larval lysate E11.5 (Example 7); conditions: for inhibition of Tsp 130 binding to E11.5 lysate: about 500 μg/ml
# Description: (§1) Samples in which Tsp-130 monoclonal antibodies and disaccharides, as listed below, were pre-incubated prior to addition to the treated ELISA plate were prepared as follows. One thousand-fold serial dilutions of the following disaccharides, ranging from about 1×10^-6 fg/ml to about 1 mg/ml, were prepared in water: (a) α-tyvelose(1,3)β-d-N-acetylgalactosamine (also referred to herein as α-tyv-GalNAc); (b) β-tyvelose(1,3)β-d-N-acetylgalactosamine (also referred to herein as β-tyv-GalNAc); and (c) α-glucoseα-D-glucose (also referred to herein as α-glc-glc, or trehalose). The disaccharide-containing serial dilutions were then mixed with an about 1:6,400 dilution of Tsp 130 antibody at an about 1:1 (v:v) ratio. The samples were incubated for overnight at about 4° C.
# (§2) About 100 μl of the pre-incubation samples were added in triplicate to wells in the milk-coated ELISA plate. The plate was incubated for about 1 hour at room temperature to allow any unbound Tsp 130 antibody in each sample to bind to TSL-1 antigen coated onto the ELISA plate. The plate was then washed 3 times with water.
# (§3) The amount of Tsp 130 antibody that bound to TSL-1 antigen coated onto the ELISA plate was determined using the following method. About 100 μl of an about 1:8,000 dilution of horse radish peroxidase-conjugated goat anti-mouse IgG antibody (available from Kirkegaard & Perry Laboratories, Inc., Gaithersburg, Md.) was added to each well of the ELISA plate. The plate was then incubated for about 45 minutes at room temperature. Following incubation, the plate was washed 5 times with 0.05% Tween 20 in phosphate-buffered saline (PBS). The peroxidase-conjugated antibodies which bound to Tsp 130 antibody in the wells were then detected by (a) adding 100 μl/well of 3,3',5,5'-tetramethylbenzidine mixed 1:1 (v:v) with 0.02% hydrogen peroxide in a citric acid buffer (i.e., TMB Microwell Peroxidase Substrate System available from Kirkegaard & Perry) and (b) incubating the plate for about 5 minutes at room temperature. The color reaction was stopped by adding about 100 μl/well of 1M o-phosphoric acid. The color reaction was quantitated using a Microplate Reader #7520, available from Cambridge Technology, Inc., Watertown, Mass. at a wavelength of 450 nm.
# Monoclonal antibody Tsp 130 was prepared as described in Example 5. A crude muscle larval lysate of T. spiralis, referred to herein as E11.5, was prepared according to the method as described in Reason et al., ibid.
# An Immunlon II ELISA plate coated with E11.5 lysate was prepared using the method described in Example 5 with the variation that wells in the plate were coated with about 100 μl/well of a solution containing about 250 ng of E11.5 lysate per 100 μl carbonate buffer at pH 9.6. […]
# [3] = test system: Tsp 130 binding to TSL-1 antigen; assay: Competitive inhibition assay: disaccharide inhibition of Tsp 130 binding to TSL-1 antigen (Example 6); parameters: species or system T. spiralis
# Description: (§4) Monoclonal antibody Tsp 130 was prepared as described in Denkers et al. (J. Immunol. 144:3152-3159, 1990). TSL-1 antigens were prepared from muscle stage larvae by affinity purification using a Tsp 130 antibody preparation and methods as described in Denkers et al., J. Immunol., ibid., and Denkers et al., Mol. Biochem. Parasitol., ibid.
# (§5) Wells in an ELISA plate were coated with TSL-1 antigens as follows. A 96-well Immunlon II ELISA plate, available from Dynatech Laboratories, Chantilly, Va., was coated with about 100 μl/well of a solution containing about 15 ng of TSL-1 antigens per 100 μl carbonate buffer at pH 9.6, overnight, at about 4° C. Following the overnight incubation, the TSL-1 antigen-containing solution was discarded from the wells of the ELISA plate. No wash was performed. The wells of the ELISA plate were then filled to the top with about 10% dry milk in phosphate buffered saline and allowed to incubate for about 1 hour at room temperature. Following the 1 hour incubation, the milk solution was discarded from the wells. No wash was performed.
# as §1
# About 100 μl of the pre-incubation samples were added in triplicate to wells in the milk-coated ELISA plate. The plate was incubated for about 1 hour at room temperature to allow any unbound Tsp 130 antibody in each sample to bind to TSL-1 antigen coated onto the ELISA plate. […]
# The amount of Tsp 130 antibody that bound to TSL-1 antigen coated onto the ELISA plate was determined using the following method. […] The peroxidase-conjugated antibodies which bound to Tsp 130 antibody in the wells were then detected by (a) adding 100 μl/well of 3,3',5,5'-tetramethylbenzidine mixed 1:1 (v:v) with 0.02% hydrogen peroxide in a citric acid buffer (i.e., TMB Microwell Peroxidase Substrate System available from Kirkegaard & Perry) and (b) incubating the plate for about 5 minutes at room temperature. […] The color reaction was quantitated using a Microplate Reader #7520, available from Cambridge Technology, Inc., Watertown, Mass. at a wavelength of 450 nm. […]
# [4] = test system: binding of Tsp 130 antibody to TSL-1 antigen; assay: Competition ELISA: disaccharide inhibition of Tsp 130 antibody binding to TSL-1 antigen (Example 5); parameters: species or system T. spiralis; conditions: for inhibition of binding of Tsp 130 antibody to TSL-1 antigen: about 500 μg/ml; for relative affinity of Tsp 130 binding: in words, Example 5
# Description: as §4, §5, §1, §2, §3
Molecule,inhibition of Tsp 130 binding to E11.5 lysate [2],inhibition of Tsp 130 binding to TSL-1 antigen ([3]; about 1 mg/ml),inhibition of binding of Tsp 130 antibody to TSL-1 antigen [4],relative affinity of Tsp 130 binding [4],other results
C[C@H]1O[C@H](O)[C@@H](O)C[C@@H]1O [α-tyvelose],–,–,–,–,"competitive inhibition of Tsp 130 antibody binding, comparison [1]: able to competitively inhibit Tsp 130 antibody binding to TSL-1 antigen but at a higher concentration than β-tyvelose"
"CC(=O)N[C@@H]1[C@@H](O[C@@H]2O[C@H](C)[C@@H](O)C[C@@H]2O)[C@@H](O)[C@@H](CO)O[C@H]1O [β-tyv-GalNAc, β-tyvelose(1,3)β-d-N-acetylgalactosamine]",about 97%,about 97%,about 100%,higher affinity than to α-tyv-GalNAc,"relative affinity of Tsp 130 binding ([2]; in words, Example 7): higher affinity than to α-tyv-GalNAc or to α-glc-glc; inhibition of Tsp 130 binding to TSL-1 antigen ([3]; about 100 μg/ml): about 92%; relative affinity of Tsp 130 binding ([3]; in words, Example 6): higher affinity than to α-tyv-GalNAc"
"β-3,6-dideoxy-D-arabinohexose [β-tyvelose]",–,–,–,–,"competitive inhibition of Tsp 130 antibody binding, comparison ([1]; in words, Examples 5 through 7): better than α-tyvelose and even better than α-glc-glc"
"OC[C@H]1O[C@H](O[C@H]2O[C@H](CO)[C@@H](O)[C@H](O)[C@H]2O)[C@H](O)[C@@H](O)[C@@H]1O [α-glc-glc, α-glucoseα-D-glucose, reference compound]",about 7%,–,about 30%,even weaker,–
"CC(=O)N[C@@H]1[C@@H](O[C@H]2O[C@H](C)[C@@H](O)C[C@@H]2O)[C@@H](O)[C@@H](CO)O[C@H]1O [α-tyv-GalNAc, α-tyvelose(1,3)β-d-N-acetylgalactosamine]",about 28%,about 74%,about 50%,–,–
